Experimental data reported in patent US9539341B2, “Methods and compositions for targeting adipose cells in mammals” (Board of Regents, the University of Texas System, priority 2011, dated 2017).
Entries after “also recorded” stand apart in the source; their conditions may differ.

Columns and labels:
[1] = system: perivascular WAT cells (PDGFRβ+ ASC); assay: Biodistribution of biotinylated synthetic cyclic peptide (streptavidin-Cy3), WAT; type: in vivo, mouse; details: biotinylated cyclic peptide i.v., 1 hr, CD31 / CD45 co-staining
Source text: (§1) FIGS. 2A-J depict the validation of cyclic WAT7 Peptide (SEQ ID NOS: 13) Homing to ASC. Panels A-D are confocal anti-phage (red) and anti-CD31 (bright green) immunofluorescence in paraffin sections of formalin-fixed WAT and lung from mice intravenously injected with phage displaying WAT-homing peptide WAT7 (SEQ ID NOS: 13 AND 14) or a lung-homing peptide LU2 (SEQ ID NOS: 19). […] upon digital channel merging indicates localization (arrow) of phage on non-endothelial perivascular cells observed for WAT7 (SEQ ID NOS: 13) in WAT (A) but not in lung (B), and for LU2 (SEQ ID NO: 19) in lung (D) but not in WAT (C). […] Note the association (arrow) of cyclic WAT7 (SEQ ID NOS: 13) specifically with perivascular WAT cells (E) in a pattern overlapping with PDGFRβ expressed on ASC (F-G). Like PDGFRβ, WAT7 is not associated with CD31+ endothelial cells (E) or CD45+ hematopoietic cells (H). WAT7 was not detected in lung (I) despite the abundance of PDGFRβ+LSC (J). Nuclear TOPRO3 staining is blue. Scale bar: 100 μM.
(§2) Mouse Tissue and Cell Analysis by Immunofluorescence: Peptides chemically synthesized, cyclized via their N- and C-terminal cysteines, purified to at least 95% purity (Genemed), and biotinylated were injected (500 μg) via tail vein and allowed to circulate for 1 hr. […] Fluorescence images were acquired with an Olympus IX70 inverted fluorescence microscope/Magnafire software (Olympus). […]

[2] = system: C34+CD31−CD45− cells isolated from lung; assay: In vivo competition (re-homing) assay of 11 admixed phage clones, lung; design: species or system mouse; details: equal amounts of 11 phage clones mixed and injected; percent of sequenced clones on C34+CD31−CD45− cells from lung
Description: (§3) For competitive homing experiment, 5×10^9 TU for each of the 11 chosen phage clones were admixed and the combined 5.5×10^10 TU was injected. For validation of individual clones, 1×10^10 TU for each phage clones was injected. After 1 hr of circulation and heart perfusion with 10 ml of phosphate buffer saline (PBS), WAT, tibia/femurs, bone-associated skeletal muscle, and lungs were collected. Bone marrow was isolated by flushing tibia/femurs. Hematopoietic and endothelial cells were depleted from cell suspensions of each organ by Dynabeads (Invitrogen) coated with anti-TER119, anti-CD31, and anti-CD45 antibodies (BD Biosciences), after which the remaining cells were processed by FACS to purify CD34+CD31−CD45− cells. Bound phage were recovered by infecting K91 E. coli, quantified by phage transforming unit (TU) counting, and processed for sequencing of the peptide-coding DNA as described in Arap, et al. 2002, ibid and Kolonin, et al., 2006, ibid. For identification of conserved peptide motifs, ClustalW2 software was used.
(§4) After 4 rounds of synchronous in vivo biopanning, eight CX7C and CX8C sequences repeatedly recovered from ASC with frequency above 1% were identified, which were termed WAT1 through WAT8 (see Table 1 below). In parallel, a matched number of peptide inserts homing to lung stromal cells (LSC) were sequenced as a control. None of the WAT-homing peptides were enriched in the lung. Four sequences repeatedly recovered in the lung with frequency above 1%, were termed LU1 through LU4 (see Table 1 below). […] Because the focus of this study is WAT-specific MSC, this clone was excluded from further analysis. Other selected peptides were subjected to an in vivo competition assay in order to identify those with the highest specificity of binding. Equal amounts of phage for the 11 clones displaying peptides WAT1 through WAT7 (SEQ ID NOS: 1-14) and LU1 through LU4 (SEQ ID NOS: 17-24) were admixed and injected into a mouse. Homing specificity of each clone was assessed by quantifying frequency of phage coding for each peptide selected on C34+CD31−CD45− cells isolated from either WAT or lung.

[3] = system: CD34+CD31−CD45− cells (MSC) from lung; assay: Synchronous in vivo phage display biopanning, clones recovered from lung MSC (LSC); design: species or system mouse; details: percent of sequenced phage clones carrying the insert in lung after 4 rounds of synchronous in vivo biopanning on CD34+CD31−CD45− cells
Source text: (§5) Phage Library Screening: Random peptide libraries based on the M13-derived bacteriophage vector fUSE5 displaying inserts CX7C, CX8C, and CX9C on the pIII protein were admixed (1:1:1) to the combined 10^10 TU of mixed library for the screen performed based on the synchronous biopanning in vivo upon tail vein injection (see for example, US20050074747 and Arap, et al., Nat. Med. 8:121-127, 2002; Kolonin, et al., FASEB J. 20: 979-981, 2006).
as §3
(§6) Methods for isolation of MSC by fluorescence-activated cell sorting (FACS) from organ cell suspensions based on the C34+CD31−CD45− immunophenotype (FIG. 8B) were combined with phage display and optimized for ASC. By adapting the previously described “synchronous in vivo biopanning” method of (Kolonin et al., 2006, ibid), a mixture of cyclic CX7C, CX8C, and CX9C (C: disulfide-bonded cysteines; X: any amino acid) random peptide libraries was screened (FIG. 1A). This approach made it possible to select MSC probes from the pool of over 10^11 combinatorial peptides. Throughout the screen, progressive enrichment in the number of phage particles recovered on MSC from WAT, as well as from the chosen control organs: lung, bone marrow, and skeletal muscle (FIG. 1B) was observed.
as §4
(§7) Shown in Table 1 above are the percent (%) of the sequenced phage clones that carried the indicated WAT or LU insert present within WAT (% in WAT) or lung (% in LUNG) following 4 rounds of synchronous in vivo biopanning on CD34+CD31−CD45− cells.

[4] = system: CD34+CD31−CD45− cells (MSC) from WAT; assay: Synchronous in vivo phage display biopanning, clones recovered from WAT MSC (ASC); design: species or system mouse; details: percent of sequenced phage clones carrying the insert in WAT after 4 rounds of synchronous in vivo biopanning on CD34+CD31−CD45− cells
Source text: as §5, §3, §6, §4, §7

[5] = system: WAT CD34+CD31−CD45− cells (ASC) versus lung CD34+CD31−CD45− cells (LSC); assay: Homing of individual phage-peptide clones injected separately, TU on WAT vs lung MSC; type: in vivo, mouse; details: individual phage clones injected into mice, FIG. 1C
Source text: FIGS. 1A-C depict the screen for MSC-homing peptides. (A) depicts the schematic for a screen for peptides homing to organ-specific MSC populations. […] In every selection round, erythroid (TER119+), endothelial (CD31+) and hematopoietic (CD45+) cells were immunodepleted and then FACS was used to collect CD34+CD31−CD45− cells (MSC) from WAT, lung, bone marrow, and skeletal muscle. (B) Phage-peptides bound to WAT MSC (ASC), in parallel with phage-peptides bound to MSC of control organs, were quantified, amplified, pooled, and used for the next round of biopanning. Increased recovery of phage transforming units (TU) in successive rounds reflects the enrichment of phage-peptides homing to MSC of individual target organs. (C) Relative specificity of ASC homing assessed for individual phage-peptide clones separately injected into mice as a ratio of TU recovered on WAT to CD34+CD31−CD45− to TU recovered on lung CD34+CD31−CD45− cells. Fd-Tet: control insertless phage. Values shown are mean±SD for triplicate measurements.
For competitive homing experiment, 5×10^9 TU for each of the 11 chosen phage clones were admixed and the combined 5.5×10^10 TU was injected. […] Bound phage were recovered by infecting K91 E. coli, quantified by phage transforming unit (TU) counting, and processed for sequencing of the peptide-coding DNA as described in Arap, et al. 2002, ibid and Kolonin, et al., 2006, ibid. […]

[6] = system: stroma/vasculature of lung; assay: Biodistribution of peptide-displaying phage by anti-phage immunofluorescence, lung; type: in vivo, mouse; details: intravenous injection, immunofluorescence of tissue sections
Source text: as §1, §2

[7] = system: C34+CD31−CD45− cells isolated from WAT; assay: In vivo competition (re-homing) assay of 11 admixed phage clones, WAT; design: species or system mouse; details: equal amounts of 11 phage clones mixed and injected; percent of sequenced clones on C34+CD31−CD45− cells from WAT
Description: as §3, §4

Compound	co-localization with endothelial cells or CD45+ hematopoietic cells in WAT [1]	Re-home to Lung (%) [2]	% in LUNG [3]	% in WAT [4]	specificity of homing to ASC compared to lung MSC [5]	phage accumulation in lung [6]	Re-home to WAT (%) [7]
NCCCC[C@@H]1NC(=O)[C@H](Cc2c[nH]c3ccccc23)NC(=O)[C@H](CO)NC(=O)[C@@H](N)CSSC[C@@H](C(=O)O)NC(=O)[C@H](CCC(=O)O)NC(=O)CNC(=O)[C@H](Cc2ccccc2)NC(=O)[C@H](Cc2c[nH]c3ccccc23)NC(=O)[C@H](Cc2ccc(O)cc2)NC1=O [WAT-7, SWKYWFGE]	did not co-localize						
AVYRSTG [LU-1]		52.2%	71.6%	0%			
CWLGEWLGC [mPep]					modest preference for ASC; also recorded: did not display any WAT specificity		
ESGFPTVG [LU-2, control]		40.2%	14.7%	0%		associated with the stroma/vasculature of lung	
GQWLGNWL [WAT-8]		13.6%	0%	13.6%	modest preference for ASC		0%
GSGGMSPS [WAT-6]		1.9%	0%	1.9%			0%
IRGKAGR [LU-4]		1.1%	5.2%	0%			0%
KHYGGGVA [WAT-1]		9.1%	0%	9.1%			1.1%
LGVGPGF [LU-3]		1.1%	5.2%	0%			0%
LRQGNPT [WAT-5]		1.9%	0%	1.9%			0%
RFLLPQG [WAT-3]		3.9%	0%	3.9%			0%
YEGSEVS [WAT-4]		2.9%	0%	2.9%			0%
